How the values were obtained:
Collagenase 3 = Collagenase 3 (Homo sapiens, UniProt P45452); experiment: Inhibition of recombinant human MMP13 using Mca-Pro-cyclohexyl-Ala-Gly-Nva-His-Ala- Dap(Dnp)-NH2 as substrate by fluorometric analysis; settings: read-out: pIC50 (converted)
[1] = target: 72 kDa type IV collagenase (Homo sapiens, UniProt P08253); experiment: Inhibition of MMP2 using Mca-Pro-cyclohexyl-Ala-Gly-Nva-His-Ala- Dap(Dnp)-NH2 as substrate by fluorometric analysis; settings: read-out: pIC50 (converted)
[2] = Intrinsic clearance in human microsomes; type: ADME, Microsome
[3] = Intrinsic clearance in Sprague-Dawley rat hepatocytes assessed per 10^6 cells; type: ADME, cell-based, Hepatocyte; settings: Sprague-Dawley, read-out: CLH
[4] = target: Macrophage metalloelastase (Homo sapiens, UniProt P39900); experiment: Inhibition of MMP12 using Mca-Pro-cyclohexyl-Ala-Gly-Nva-His-Ala- Dap(Dnp)-NH2 as substrate by fluorometric analysis; settings: read-out: pIC50 (converted)
[5] = target: Matrix metalloproteinase-14 (Homo sapiens, UniProt P50281); experiment: Inhibition of MMP14 using Mca-Pro-cyclohexyl-Ala-Gly-Nva-His-Ala- Dap(Dnp)-NH2 as substrate by fluorometric analysis; settings: read-out: pIC50 (converted)
[6] = target: Matrix metalloproteinase-9 (Homo sapiens, UniProt P14780); experiment: Inhibition of MMP9 using Mca-Pro-cyclohexyl-Ala-Gly-Nva-His-Ala- Dap(Dnp)-NH2 as substrate by fluorometric analysis; settings: read-out: pIC50 (converted)
[7] = Apparent permeability across apical to basolateral side in human Caco2 cells at 10 uM; type: ADME, cell-based; settings: Caco-2
[8] = Oral bioavailability in rat; type: ADME, organism-based; settings: in vivo
[9] = Apparent permeability across basolateral to apical side in human Caco2 cells at 10 uM; type: ADME, cell-based; settings: Caco-2
[10] = target: MMP-2/MMP-13 (Homo sapiens) (UniProt P08253+P45452); experiment: Selectivity ratio of pIC50 for MMP2 to pIC50 for recombinant human MMP13
Sequence of MMP-2/MMP-13 (Homo sapiens) (P08253 whole entry, looked up, other chains not shown): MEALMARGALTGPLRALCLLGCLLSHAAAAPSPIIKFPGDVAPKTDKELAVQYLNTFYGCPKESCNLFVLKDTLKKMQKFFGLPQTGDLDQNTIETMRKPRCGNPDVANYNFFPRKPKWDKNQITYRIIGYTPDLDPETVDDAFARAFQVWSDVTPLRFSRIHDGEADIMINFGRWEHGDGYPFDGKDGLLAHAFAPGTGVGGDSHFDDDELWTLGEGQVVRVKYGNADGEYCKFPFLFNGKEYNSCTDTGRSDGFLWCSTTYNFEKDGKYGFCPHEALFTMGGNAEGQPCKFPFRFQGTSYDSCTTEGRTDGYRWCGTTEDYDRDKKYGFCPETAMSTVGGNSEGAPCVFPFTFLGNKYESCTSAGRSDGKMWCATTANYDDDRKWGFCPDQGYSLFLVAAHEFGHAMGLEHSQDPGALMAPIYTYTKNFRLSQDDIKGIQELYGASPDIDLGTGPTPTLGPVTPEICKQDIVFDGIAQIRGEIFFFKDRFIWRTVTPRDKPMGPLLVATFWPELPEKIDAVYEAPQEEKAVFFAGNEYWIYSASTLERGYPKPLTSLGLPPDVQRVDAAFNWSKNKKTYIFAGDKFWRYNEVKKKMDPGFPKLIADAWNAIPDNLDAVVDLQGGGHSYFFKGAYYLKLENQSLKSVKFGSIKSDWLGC

Sequence of 72 kDa type IV collagenase (P08253 whole entry): as the sequence (P08253 whole entry, looked up, other chains not shown) above
Sequence of Matrix metalloproteinase-9 (P14780 whole entry): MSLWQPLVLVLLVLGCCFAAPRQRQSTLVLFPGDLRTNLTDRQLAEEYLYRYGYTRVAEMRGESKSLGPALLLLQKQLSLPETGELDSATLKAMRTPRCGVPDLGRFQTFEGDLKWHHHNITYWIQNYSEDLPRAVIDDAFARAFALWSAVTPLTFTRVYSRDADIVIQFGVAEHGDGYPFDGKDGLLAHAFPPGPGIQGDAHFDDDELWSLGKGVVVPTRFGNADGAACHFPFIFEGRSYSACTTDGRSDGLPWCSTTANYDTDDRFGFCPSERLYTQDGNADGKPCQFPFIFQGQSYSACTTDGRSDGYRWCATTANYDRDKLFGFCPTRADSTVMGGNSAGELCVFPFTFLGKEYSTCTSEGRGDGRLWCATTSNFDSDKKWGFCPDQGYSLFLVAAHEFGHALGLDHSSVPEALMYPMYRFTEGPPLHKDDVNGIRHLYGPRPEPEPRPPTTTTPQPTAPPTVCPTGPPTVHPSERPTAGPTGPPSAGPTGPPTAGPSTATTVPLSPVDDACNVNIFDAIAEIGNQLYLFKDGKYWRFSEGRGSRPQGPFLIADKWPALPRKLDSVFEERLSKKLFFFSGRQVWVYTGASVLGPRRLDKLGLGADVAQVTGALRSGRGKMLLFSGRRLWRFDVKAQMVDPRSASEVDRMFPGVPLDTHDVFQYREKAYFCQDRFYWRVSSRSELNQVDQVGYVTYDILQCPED
Sequence of Macrophage metalloelastase (P39900 whole entry): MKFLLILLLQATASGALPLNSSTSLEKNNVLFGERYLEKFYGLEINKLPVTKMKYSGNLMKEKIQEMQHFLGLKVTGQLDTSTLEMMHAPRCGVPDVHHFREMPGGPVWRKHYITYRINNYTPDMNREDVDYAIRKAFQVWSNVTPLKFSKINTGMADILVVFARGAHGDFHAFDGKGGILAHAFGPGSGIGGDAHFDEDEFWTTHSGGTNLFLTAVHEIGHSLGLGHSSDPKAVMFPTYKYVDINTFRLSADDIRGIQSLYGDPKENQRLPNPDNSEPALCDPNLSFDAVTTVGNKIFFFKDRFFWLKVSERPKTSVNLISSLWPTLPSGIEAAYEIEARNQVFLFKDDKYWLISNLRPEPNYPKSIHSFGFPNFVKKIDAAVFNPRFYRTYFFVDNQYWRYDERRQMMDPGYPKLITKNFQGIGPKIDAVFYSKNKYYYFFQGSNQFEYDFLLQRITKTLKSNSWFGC

Row | SMILES | IC50 (Collagenase 3) [nM] | IC50 [1] [nM] | microsomal CLint [2] [µL/min/mg] | also measured
1 | CS(=O)(=O)c1ccc(Oc2ccc(C#C[C@]3(O)CN4CCC3CC4)cc2)cc1 | 316 | – | – | –
2 | O=C(NCC1CCCCC1)c1ccc(Oc2ccc(C#C[C@]3(O)CN4CCC3CC4)cc2)cc1 | 100 | 5010 | – | –
3 | O=C(NCc1ccncc1)c1ccc(Oc2ccc(C#C[C@]3(O)CN4CCC3CC4)cc2)cc1 | – | 6310 | 10.2 | –
4 | CNS(=O)(=O)c1ccc(Oc2ccc(C#C[C@]3(O)CN4CCC3CC4)cc2)cc1 | 100 | – | – | –
5 | COc1cc(CNC(=O)c2ccc(Oc3ccc(C#C[C@]4(O)CN5CCC4CC5)cc3)cc2)cc(OC)c1 | 50.1 | 7940 | 4.8 | –
6 | CS(=O)(=O)Nc1ccc(Oc2ccc(C#C[C@]3(O)CN4CCC3CC4)cc2)cc1 | 2510 | – | – | –
7 | CS(=O)(=O)N1CCC(NC(=O)c2ccc(Oc3ccc(C#C[C@]4(O)CN5CCC4CC5)cc3)cc2)CC1 | 50.1 | 7940 | 2.9 | hepatocyte CLint [3]: < 2 µL/min/1e6 cells; IC50 [4]: > 10000 nM; IC50 [5]: > 10000 nM; IC50 [6]: > 10000 nM
8 | Cc1cc(CN(C)C(=O)c2ccc(Oc3ccc(C#C[C@]4(O)CN5CCC4CC5)cc3)cc2)on1 | 79.4 | 7940 | 2.7 | Papp A→B at 10 µM [7]: 8.2 ×10⁻⁶ cm/s; bioavailability [8]: 3%; Papp B→A at 10 µM [9]: 53 ×10⁻⁶ cm/s
9 | CC(=O)N1CCC(NC(=O)c2ccc(Oc3ccc(C#C[C@]4(O)CN5CCC4CC5)cc3)cc2)CC1 | 39.8 | 5010 | 2.5 | hepatocyte CLint [3]: < 2 µL/min/1e6 cells; IC50 [4]: > 10000 nM; IC50 [5]: > 10000 nM; IC50 [6]: > 10000 nM
10 | O=C(O)c1ccc(Oc2ccc(C#C[C@]3(O)CN4CCC3CC4)cc2)cc1 | 5010 | – | – | –
11 | N#Cc1cccc(CNC(=O)c2ccc(Oc3ccc(C#C[C@]4(O)CN5CCC4CC5)cc3)cc2)c1 | 63.1 | > 10000 | 9.9 | –
12 | O=C(Nc1ccccn1)c1ccc(Oc2ccc(C#C[C@]3(O)CN4CCC3CC4)cc2)cc1 | 316 | > 10000 | < 2 | –
13 | CN(Cc1ccncc1)C(=O)c1ccc(Oc2ccc(C#C[C@]3(O)CN4CCC3CC4)cc2)cc1 | 251 | > 10000 | – | –
14 | O=C(NC1CCS(=O)(=O)CC1)c1ccc(Oc2ccc(C#C[C@]3(O)CN4CCC3CC4)cc2)cc1 | 100 | > 10000 | 2.5 | IC50 [4]: > 10000 nM; IC50 [5]: > 10000 nM; IC50 [6]: > 10000 nM
15 | CS(=O)(=O)c1cccc(CNC(=O)c2ccc(Oc3ccc(C#C[C@]4(O)CN5CCC4CC5)cc3)cc2)c1 | 31.6 | 7940 | 12.5 | –
16 | O=C(NC1CCCCC1)c1ccc(Oc2ccc(C#C[C@]3(O)CN4CCC3CC4)cc2)cc1 | 25.1 | > 10000 | 2.9 | –
17 | CC[C@@H](C)NC(=O)c1ccc(Oc2ccc(C#C[C@]3(O)CN4CCC3CC4)cc2)cc1 | 50.1 | 6310 | 8.9 | –
18 | O=C(NCc1ccc(F)cc1)c1ccc(Oc2ccc(C#C[C@]3(O)CN4CCC3CC4)cc2)cc1 | 100 | 6310 | – | –
19 | COc1cccc(CNC(=O)c2ccc(Oc3ccc(C#C[C@]4(O)CN5CCC4CC5)cc3)cc2)c1 | 79.4 | > 10000 | 10.9 | –

Row | SMILES | IC50 (Collagenase 3) [nM] | IC50 [1] [nM] | microsomal CLint [2] [µL/min/mg] | also measured
20 | CONC(=O)c1ccc(Oc2ccc(C#C[C@]3(O)CN4CCC3CC4)cc2)cc1 | 2510 | – | – | –
21 | C[C@@H](NC(=O)c1ccc(Oc2ccc(C#C[C@]3(O)CN4CCC3CC4)cc2)cc1)c1ccncc1 | 12.6 | 3980 | 18.8 | Ratio pIC50 [10]: > 300
22 | CC(=O)Nc1ccc(Oc2ccc(C#C[C@]3(O)CN4CCC3CC4)cc2)cc1 | > 10000 | – | – | –
23 | CCOC(=O)c1ccc(Oc2ccc(C#C[C@]3(O)CN4CCC3CC4)cc2)cc1 | 1000 | – | – | –
24 | COc1ccc(CNC(=O)c2ccc(Oc3ccc(C#C[C@]4(O)CN5CCC4CC5)cc3)cc2)cc1OC | 10 | 1260 | 2.7 | –
25 | COc1ccc(CNC(=O)c2ccc(Oc3ccc(C#C[C@]4(O)CN5CCC4CC5)cc3)cc2)c(OC)c1 | 39.8 | 6310 | 16.1 | –
26 | CS(=O)(=O)Oc1cccc(CNC(=O)c2ccc(Oc3ccc(C#C[C@]4(O)CN5CCC4CC5)cc3)cc2)c1 | 63.1 | 7940 | 8.6 | –
27 | C[S+]([O-])c1ccc(Oc2ccc(C#C[C@]3(O)CN4CCC3CC4)cc2)cc1 (stereo partly specified) | 398 | – | – | –
28 | OCc1ccc(Oc2ccc(C#C[C@]3(O)CN4CCC3CC4)cc2)cc1 | > 10000 | – | – | –
29 | O=C(NC1CCN(C(=O)C2CC2)CC1)c1ccc(Oc2ccc(C#C[C@]3(O)CN4CCC3CC4)cc2)cc1 | 25.1 | 6310 | 3.7 | IC50 [4]: > 10000 nM; IC50 [5]: > 10000 nM; IC50 [6]: > 10000 nM
30 | CC(C)NC(=O)c1ccc(Oc2ccc(C#C[C@]3(O)CN4CCC3CC4)cc2)cc1 | 100 | > 10000 | – | –
31 | COc1ccc(CNC(=O)c2ccc(Oc3ccc(C#C[C@]4(O)CN5CCC4CC5)cc3)cc2)nc1 | 31.6 | > 10000 | 5.6 | Ratio pIC50 [10]: > 300
32 | CN(C)C(=O)c1ccc(Oc2ccc(C#C[C@]3(O)CN4CCC3CC4)cc2)cc1 | 1580 | – | – | –
33 | CNC(=O)N1CCC(NC(=O)c2ccc(Oc3ccc(C#C[C@]4(O)CN5CCC4CC5)cc3)cc2)CC1 | 50.1 | 3980 | < 2 | IC50 [4]: > 10000 nM; IC50 [5]: > 10000 nM; IC50 [6]: > 10000 nM
34 | O=C(NCc1ccccc1)c1ccc(Oc2ccc(C#C[C@]3(O)CN4CCC3CC4)cc2)cc1 | 63.1 | 7940 | < 2 | –
35 | O=C(NCc1ccnc2ccccc12)c1ccc(Oc2ccc(C#C[C@]3(O)CN4CCC3CC4)cc2)cc1 | 20 | 2000 | 26.1 | –
36 | O=C(NC1CCN(C2CC2)CC1)c1ccc(Oc2ccc(C#C[C@]3(O)CN4CCC3CC4)cc2)cc1 | 79.4 | 7940 | 4.7 | IC50 [4]: > 10000 nM; IC50 [5]: > 10000 nM; IC50 [6]: > 10000 nM
37 | O=C(NC1CCS(=O)(=O)C1)c1ccc(Oc2ccc(C#C[C@]3(O)CN4CCC3CC4)cc2)cc1 (stereo partly specified) | 79.4 | 7940 | < 2 | hepatocyte CLint [3]: < 2 µL/min/1e6 cells; IC50 [4]: > 10000 nM; IC50 [5]: > 10000 nM; IC50 [6]: > 10000 nM
38 | NC(=O)c1ccc(Oc2ccc(C#C[C@]3(O)CN4CCC3CC4)cc2)cc1 | 631 | – | – | –

— ChEMBL document CHEMBL1938343, “Lead optimisation of selective non-zinc binding inhibitors of MMP13. Part 2” (Bioorg Med Chem Lett, 2012)
